Source: US6737383B1, “Herbicidal oxadiazolidines” (priority 1999, dated 2004)

Tests used:
cocklebur = test: Test B pre/postemergence cocklebur; format: in vivo, Xanthium strumarium
Summary of the method: (§1)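 Herbicidal effect was estimated by eye on a ten-point control scale after plants spent twelve to sixteen days in a greenhouse following soil or foliar treatment. Foliar sprays targeted plants at one to four leaves; all doses were formulated in a non-phytotoxic solvent with surfactant.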

soybean = test: Test B pre/postemergence soybean; format: in vivo, Glycine max
Summary of the method: as §1

rice = test: Test B flood test rice; format: in vivo, Oryza sativa
Summary of the method: (§2)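 Read-out is a visual response score from 0 (no effect) to 10 (complete control), assigned by comparison with untreated controls. Treatment was applied at the 2-leaf stage, and plants stayed in the greenhouse for twelve to sixteen days before scoring.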

wild oat = test: Test B pre/postemergence wild oat; format: in vivo, Avena fatua
Summary of the method: as §1

blackgrass = test: Test B pre/postemergence blackgrass; format: in vivo, Alopecurus myosuroides
Summary of the method: as §1

wheat = test: Test B pre/postemergence wheat; format: in vivo, Triticum aestivum
Summary of the method: as §1

rape = test: Test B pre/postemergence rape; format: in vivo, Brassica napus
Summary of the method: as §1

velvetleaf = test: Test B pre/postemergence velvetleaf; format: in vivo, Abutilon theophrasti
Summary of the method: as §1

surinam grass = test: Test B pre/postemergence surinam grass; format: in vivo, Brachiaria decumbens
Summary of the method: as §1

bedstraw = test: Test B pre/postemergence bedstraw; format: in vivo, Galium aparine
Summary of the method: as §1

pigweed = test: Test B pre/postemergence pigweed; format: in vivo, Amaranthus retroflexus
Summary of the method: as §1

morningglory = test: Test B pre/postemergence morningglory; format: in vivo, Ipomoea hederacea
Summary of the method: as §1

giant foxtail = test: Test B pre/postemergence giant foxtail; format: in vivo, Setaria faberii
Summary of the method: as §1

sugar beet = test: Test B pre/postemergence sugar beet; format: in vivo, Beta vulgaris
Summary of the method: as §1

smallflower flatsedge = test: Test B flood test smallflower flatsedge; format: in vivo, Cyperus difformis
Summary of the method: as §2

corn = test: Test B pre/postemergence corn; format: in vivo, Zea mays
Summary of the method: as §1

[1] = Preemergence, Rate 62 g/ha, scale of 0 to 10 where 0 is no effect and 10 is complete control
[2] = Preemergence, Rate 125 g/ha, 0 is no effect, 10 is complete control
[3] = Preemergence, Rate 250 g/ha, scale 0 to 10, 0 is no effect, 10 is complete control
[4] = Preemergence, Rate 500 g/ha, scale of 0 to 10 where 0 is no effect and 10 is complete control
[5] = Rate 62 g/ha, Postemergence, scale of 0 to 10 where 0 is no effect and 10 is complete control
[6] = Rate 125 g/ha, Postemergence, scale 0 to 10
[7] = Rate 500 g/ha, Postemergence, scale 0 to 10
[8] = Rate 62 g/ha, headed Pre-emergence (flood test species), scale 0 to 10 (0 no effect, 10 complete control)
[9] = Rate 125 g/ha, Pre-emergence, flood test species, scale 0 to 10 where 0 is no effect and 10 is complete control
[10] = Rate 250 g/ha, Pre-emergence, flood-test species, scale 0 to 10, 0 is no effect, 10 is complete control

For C=CCn1c(=O)on(C(=O)N(c2ccc(F)cc2)C2CCC2)c1=O [Compound 194], the “Cocklebur plant response rating” value (cocklebur; [1]) was 0, the “Cocklebur plant response rating (0 to 10 scale)” value (cocklebur; [2]) was 0 and the “Cocklebur plant response rating” value (cocklebur; [3]) was 0. The “Plant response rating, Cocklebur” value (cocklebur; [4]) was 0, the “Cocklebur plant response rating” value (cocklebur; [5]) was 0 and the “Cocklebur plant response rating” value (cocklebur; [6]) was 1. For the same molecule, the “Plant response rating (0 to 10; 0 is no effect, 10 is complete control), Cocklebur” value (cocklebur; Rate 250 g/ha, Postemergence) was 2, the “Cocklebur plant response rating” value (cocklebur; [7]) was 2 and the “Soybean plant response rating” value (soybean; [1]) was 0. The “Soybean plant response rating (0 to 10 scale)” value (soybean; [2]) was 0, the “Soybean plant response rating” value (soybean; [3]) was 0 and the “Plant response rating, Soybean” value (soybean; [4]) was 0. For the same molecule, the “Soybean plant response rating” value (soybean; [5]) was 0, the “Soybean plant response rating” value (soybean; [6]) was 0 and the “Plant response rating (0 to 10; 0 is no effect, 10 is complete control), Soybean” value (soybean; Rate 250 g/ha, Postemergence) was 0. For the same molecule, the “Soybean plant response rating” value (soybean; [7]) was 1, the “Rice plant response rating” value (rice; [8]) was 0 and the “Rice plant response rating” value (rice; [9]) was 0. The “Rice plant response rating” value (rice; [10]) was 0, the “Plant response rating, Rice” value (rice; Rate 500 g/ha, headed Pre-emergence (flood test species), scale 0 to 10 (0 no effect, 10 complete control)) was 0 and the “Wild oats plant response rating” value (wild oat; [1]) was 0. The “Wild oats plant response rating” value (wild oat; [3]) was 3, the “Plant response rating, Wild oats” value (wild oat; [4]) was 8 and the “Wild oats plant response rating” value (wild oat; [5]) was 0. The “Wild oats plant response rating” value (wild oat; [6]) was 0, the “Plant response rating (0 to 10; 0 is no effect, 10 is complete control), Wild oats” value (wild oat; Rate 250 g/ha, Postemergence) was 0 and the “Blackgrass plant response rating” value (blackgrass; [1]) was 0. The “Blackgrass plant response rating (0 to 10 scale)” value (blackgrass; [2]) was 2, the “Blackgrass plant response rating” value (blackgrass; [3]) was 3 and the “Plant response rating, Blackgrass” value (blackgrass; [4]) was 8. For the same molecule, the “Blackgrass plant response rating” value (blackgrass; [5]) was 0, the “Blackgrass plant response rating” value (blackgrass; [6]) was 0 and the “Plant response rating (0 to 10; 0 is no effect, 10 is complete control), Blackgrass” value (blackgrass; Rate 250 g/ha, Postemergence) was 2. The “Blackgrass plant response rating” value (blackgrass; [7]) was 3, the “Wheat plant response rating” value (wheat; [1]) was 0 and the “Wheat plant response rating” value (wheat; [3]) was 0. The “Plant response rating, Wheat” value (wheat; [4]) was 2, the “Wheat plant response rating” value (wheat; [5]) was 0 and the “Wheat plant response rating” value (wheat; [6]) was 0. For the same molecule, the “Plant response rating (0 to 10; 0 is no effect, 10 is complete control), Wheat” value (wheat; Rate 250 g/ha, Postemergence) was 0, the “Rape plant response rating” value (rape; [1]) was 0 and the “Rape plant response rating (0 to 10 scale)” value (rape; [2]) was 0. The “Rape plant response rating” value (rape; [3]) was 2, the “Plant response rating, Rape” value (rape; [4]) was 7 and the “Rape plant response rating” value (rape; [5]) was 0. The “Rape plant response rating” value (rape; [6]) was 0, the “Plant response rating (0 to 10; 0 is no effect, 10 is complete control), Rape” value (rape; Rate 250 g/ha, Postemergence) was 0 and the “Rape plant response rating” value (rape; [7]) was 2. The “Velvetleaf plant response rating” value (velvetleaf; [1]) was 0, the “Velvetleaf plant response rating” value (velvetleaf; [3]) was 0 and the “Plant response rating, Velvetleaf” value (velvetleaf; [4]) was 3. For the same molecule, the “Velvetleaf plant response rating” value (velvetleaf; [5]) was 0, the “Velvetleaf plant response rating” value (velvetleaf; [6]) was 0 and the “Plant response rating (0 to 10; 0 is no effect, 10 is complete control), Velvetleaf” value (velvetleaf; Rate 250 g/ha, Postemergence) was 0. The “B. signalgrass plant response rating” value (surinam grass; [1]) was 0, the “B. signalgrass plant response rating (0 to 10 scale)” value (surinam grass; [2]) was 0 and the “B. signalgrass plant response rating” value (surinam grass; [3]) was 0. For the same molecule, the “Plant response rating, B. signalgrass” value (surinam grass; [4]) was 3, the “B. signalgrass plant response rating” value (surinam grass; [5]) was 0 and the “B. signalgrass plant response rating” value (surinam grass; Rate 125 g/ha, Postemergence, scale 0 (no effect) to 10 (complete control)) was 0. The “Plant response rating, B. signalgrass” value (surinam grass; Rate 250 g/ha, Postemergence, scale 0 to 10, 0 is no effect, 10 is complete control) was 0, the “B. signalgrass plant response rating” value (surinam grass; Rate 500 g/ha, Postemergence, scale 0 to 10, 0 no effect, 10 complete control) was 3 and the “Bedstraw plant response rating” value (bedstraw; [1]) was 0. The “Bedstraw plant response rating (0 to 10 scale)” value (bedstraw; [2]) was 0, the “Bedstraw plant response rating” value (bedstraw; [3]) was 0 and the “Plant response rating, Bedstraw” value (bedstraw; [4]) was 10. For the same molecule, the “Bedstraw plant response rating” value (bedstraw; [5]) was 0, the “Bedstraw plant response rating” value (bedstraw; [6]) was 0 and the “Plant response rating (0 to 10; 0 is no effect, 10 is complete control), Bedstraw” value (bedstraw; Rate 250 g/ha, Postemergence) was 0. For the same molecule, the “Bedstraw plant response rating” value (bedstraw; [7]) was 0, the “Redroot pigweed plant response rating” value (pigweed; [1]) was 5 and the “Redroot pigweed plant response rating (0 to 10 scale)” value (pigweed; [2]) was 7. For the same molecule, the “Redroot pigweed plant response rating” value (pigweed; [3]) was 8, the “Plant response rating, Redroot pigweed” value (pigweed; [4]) was 10 and the “Redroot pigweed plant response rating” value (pigweed; [5]) was 0. The “Redroot pigweed plant response rating” value (pigweed; [6]) was 0, the “Plant response rating (0 to 10; 0 is no effect, 10 is complete control), Redroot pigweed” value (pigweed; Rate 250 g/ha, Postemergence) was 0 and the “Redroot pigweed plant response rating” value (pigweed; [7]) was 0. For the same molecule, the “Morningglory plant response rating” value (morningglory; [1]) was 0, the “Morningglory plant response rating (0 to 10 scale)” value (morningglory; [2]) was 0 and the “Morningglory plant response rating” value (morningglory; [3]) was 0. The “Plant response rating, Morningglory” value (morningglory; [4]) was 0, the “Morningglory plant response rating” value (morningglory; [5]) was 0 and the “Morningglory plant response rating” value (morningglory; [6]) was 0. For the same molecule, the “Plant response rating (0 to 10; 0 is no effect, 10 is complete control), Morningglory” value (morningglory; Rate 250 g/ha, Postemergence) was 1, the “Morningglory plant response rating” value (morningglory; [7]) was 2 and the “Giant foxtail plant response rating” value (giant foxtail; [1]) was 3. For the same molecule, the “Giant foxtail plant response rating (0 to 10 scale)” value (giant foxtail; [2]) was 8, the “Giant foxtail plant response rating” value (giant foxtail; [3]) was 8 and the “Plant response rating, Giant foxtail” value (giant foxtail; [4]) was 9. The “Giant foxtail plant response rating” value (giant foxtail; [5]) was 0, the “Giant foxtail plant response rating” value (giant foxtail; [6]) was 1 and the “Plant response rating (0 to 10; 0 is no effect, 10 is complete control), Giant foxtail” value (giant foxtail; Rate 250 g/ha, Postemergence) was 2. For the same molecule, the “Giant foxtail plant response rating” value (giant foxtail; [7]) was 2, the “Sugarbeets plant response rating” value (sugar beet; [1]) was 0 and the “Sugarbeets plant response rating (0 to 10 scale)” value (sugar beet; [2]) was 0. The “Sugarbeets plant response rating” value (sugar beet; [3]) was 2, the “Plant response rating, Sugarbeets” value (sugar beet; [4]) was 3 and the “Sugarbeets plant response rating” value (sugar beet; [5]) was 0. The “Sugarbeets plant response rating” value (sugar beet; [6]) was 0, the “Plant response rating (0 to 10; 0 is no effect, 10 is complete control), Sugarbeets” value (sugar beet; Rate 250 g/ha, Postemergence) was 0 and the “Sugarbeets plant response rating” value (sugar beet; [7]) was 0. For the same molecule, the “S. Flatsedge plant response rating” value (smallflower flatsedge; [8]) was 0, the “S. Flatsedge plant response rating” value (smallflower flatsedge; [9]) was 0 and the “S. Flatsedge plant response rating” value (smallflower flatsedge; [10]) was 0. The “S. Flatsedge plant response rating” value (smallflower flatsedge; Rate 500 g/ha, Pre-emergence, flood test species, scale 0 to 10 (0 no effect, 10 complete control)) was 0, the “Corn plant response rating” value (corn; [1]) was 0 and the “Corn plant response rating (0 to 10 scale)” value (corn; [2]) was 0. The “Corn plant response rating” value (corn; [3]) was 0, the “Plant response rating, Corn” value (corn; [4]) was 0 and the “Corn plant response rating” value (corn; [5]) was 0. For the same molecule, the “Corn plant response rating” value (corn; [6]) was 0, the “Plant response rating (0 to 10; 0 is no effect, 10 is complete control), Corn” value (corn; Rate 250 g/ha, Postemergence) was 0 and the “Corn plant response rating” value (corn; [7]) was 0.
